According to patent US20230331683A1, “INHIBITORS OF SPINSTER HOMOLOG 2 (SPNS2) FOR USE IN THERAPY” (University of Virginia Patent Foundation, priority 2020, published 2023):
Where a name gives a salt, the structure may show the parent alone.

These compounds were tested against mouse SPNS2 (Mus musculus (Mouse), UniProt Q91VM4) (assay: S1P Transporter Assay (S1P release from whole cells expressing SPNS2)). Settings: in vitro inhibition against SPNS2; HeLa cells expressing mouse SPNS2, S1P release into media after 18 hours; compounds as their pharmaceutical salts.
Format: cell-based
Description: Transporter assays are vectorial and therefore require measurement of the transported analyte in different compartments. The S1P transporter SPNS2 only exports S1P, which obviates measuring uptake of S1P into transporter-expressing cells. Thus, transporter activity was determined by quantifying S1P release from whole cells expressing SPNS2. SPNS2 inhibitor potency was assessed using whole cell assays. HeLa cells expressing mouse SPNS2 were used to determine inhibitor potency (IC50). Cells were plated onto 12 well plates and assayed when the cell monolayers became confluent. Cell growth media (RPMI-1640 containing 10% fetal bovine serum) was replaced with 2 mL of serum-free media (RPMI-1640) containing fatty acid free bovine serum albumin (BSA) (0.2 % w/v) and supplemented with 4-deoxypyridoxine (DOP) (1 mM), NaF (2 mM), Na3VO4 (0.2 mM) to inhibit S1P degradation. Test articles (1 × 10-9 - 1 × 10^-4 M) were assayed in duplicate or triplicate. After 18 hours, media was collected, an internal recovery standard (0.005 mL of 5 × 10^-7 M deuterated (d7) S 1P in methanol) was added, the BSA was precipitated with trichloroacetic acid and the bound S1P extracted with methanol. S1P and S1P-d7 were measured by liquid chromatography mass spectrometry. Inhibitor potency at the human SPNS2 ortholog was determined by an analogous assay using U-937 cells, which endogenously express human SPNS2.

mouse SPNS2, sequence (Q91VM4 whole entry): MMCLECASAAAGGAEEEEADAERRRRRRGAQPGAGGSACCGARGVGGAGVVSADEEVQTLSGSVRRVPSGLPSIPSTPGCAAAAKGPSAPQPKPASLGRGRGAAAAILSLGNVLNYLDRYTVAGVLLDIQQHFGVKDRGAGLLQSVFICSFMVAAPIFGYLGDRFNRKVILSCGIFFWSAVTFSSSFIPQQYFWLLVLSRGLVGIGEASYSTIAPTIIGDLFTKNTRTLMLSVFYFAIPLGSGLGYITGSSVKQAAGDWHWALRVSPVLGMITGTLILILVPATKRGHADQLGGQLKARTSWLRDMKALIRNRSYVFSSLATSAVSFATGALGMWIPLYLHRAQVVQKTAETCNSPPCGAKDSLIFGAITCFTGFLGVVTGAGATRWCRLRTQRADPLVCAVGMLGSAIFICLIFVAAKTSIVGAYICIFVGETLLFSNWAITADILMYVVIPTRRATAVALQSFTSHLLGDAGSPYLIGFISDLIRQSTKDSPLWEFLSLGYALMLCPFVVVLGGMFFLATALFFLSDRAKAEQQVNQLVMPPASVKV

| IC50 | SMILES |
| --- | --- |
| ≤ 2 µM | CCCCCCCCCCc1ccc(NC(=O)O[C@@H]2CCNC2)cc1 [Compound 23c, (R)-pyrrolidin-3-yl (4-decylphenyl)carbamate Hydrochloride] |
| > 2 µM | CCCCCCCCCCc1ccc2oc(CCN)nc2c1 [Compound 8a, 2-Decylbenzo[d]oxazol-2-yl)ethan-1-amine Hydrochloride] |
| > 2 µM | CCCCCCCCCCc1ccc2nc(N3CC[C@H](N)C3)oc2c1 [Compound 13z, (S)(6-decylbenzo[d]oxazol-2-yl)pyrrolidin-3-amine Hydrochloride] |
| > 2 µM | CCCCCCCCCCc1ccc2nc(NCCN)oc2c1 [Compound 13q, N^1-decylbenzo[d]oxazol-2-yl)ethane-1,2-diamine hydrochloride] |
| > 2 µM | CCCCCCCCc1ccc2oc(NCCN)nc2c1 [Compound 13a, N^1-octylbenzo[d]oxazol-2-yl)ethane-1,2-diamine hydrochloride] |
| ≤ 2 µM | CCCCCCCCCCc1ccc2nc(NC3CCNCC3)oc2c1 [Compound 13ab, 6-decyl-N-(piperidin-4-yl)benzo[d]oxazol-2-amine Hydrochloride] |
| > 2 µM | CCCCCCCCCCc1ccc2oc(NC3CNC3)nc2c1 [Compound 13i, N-(azetidin-3-yl)-5-decylbenzo[d]oxazol-2-amine 2,2,2-trifluoroacetate] |
| > 2 µM | CCCCCCCCCCc1ccc2oc(NCCCCN)nc2c1 [Compound 13g, N^1-decylbenzo[d]oxazol-2-yl)butane-1,4-diamine carbamate hydrochloride] |
| ≤ 2 µM | CCCCCCCCCCc1ccc2nc(N(CCN)CCN)oc2c1 [Compound 13y, N1-aminoethyl)-N1-(6-decylbenzo[d]oxazol-2-yl)ethane-1,2-diamine dihydrochloride] |
| > 2 µM | CCCCCCCCCCc1ccc2oc(N3CC[C@@H](N)C3)nc2c1 [Compound 13o, (R)(5-decylbenzo[d]oxazol-2-yl)pyrrolidin-3-amine Hydrochloride] |
| ≤ 2 µM | CCCCCCCCCCc1ccc2oc(N[C@@H]3CNC[C@@H]3F)nc2c1 [Compound 13l, 5-decyl-N-((3R,4S)-4-fluoropyrrolidin-3-yl)benzo[d]oxazol-2-amine hydrochloride] |
| > 2 µM | CCCCCCCCCCc1ccc2nc(NCCCN)oc2c1 [Compound 13r, N^1-decylbenzo[d]oxazol-2-yl)propane-1,3-diamine hydrochloride] |
| > 2 µM | CCCCCCCCCCc1cccc2oc(NCCN)nc12 [Compound 13w, N^1-decylbenzo[d]oxazol-2-yl)ethane-1,2-diamine hydrochloride] |
| > 2 µM | CCCCCCCCCc1ccc2oc(NCCN)nc2c1 [Compound 13b, N^1-nonylbenzo[d]oxazol-2-yl)ethane-1,2-diamine hydrochloride] |
| > 2 µM | CCCCCCCCCCc1ccc2oc(NCCN)nc2c1 [Compound 13c, N^1-decylbenzo[d]oxazol-2-yl)ethane-1,2-diamine hydrochloride] |
| > 2 µM | CCCCCCCCCCc1ccc2oc(NCCCN)nc2c1 [Compound 13f, hydrochloride] |
| ≤ 2 µM | CCCCCCCCCCc1ccc(C(=O)NCCCN)cc1 [Compound 26d, N-aminopropyl)-4-decylbenzamide Hydrochloride] |

| IC50 | SMILES |
| --- | --- |
| > 2 µM | CCCCCCCCCCc1ccc2oc(CCCCCN)nc2c1 [Compound 8c, 5-Decylbenzo[d]oxazol-2-yl)pentan-1-amine Hyrdrochloride] |
| ≤ 2 µM | CCCCCCCCCCc1ccc(NC(=O)N2CCC(N)CC2)cc1 [Compound 20a, 4-amino-N-(4-decylphenyl)piperidine-1-carboxamide Hydrochloride] |
| > 2 µM | CCCCCCCCCCc1ccc2oc(N3CCNCC3)nc2c1 [Compound 13p, 5-Decyl(piperazin-1-yl)benzo[d]oxazole Hydrochloride] |
| > 2 µM | CCCCCCCCCCc1ccc(C(=O)NCCN)cc1 [Compound 26e, N-aminoethyl)-4-decylbenzamide Hydrochloride] |
| > 2 µM | CCCCCCCCCCc1cccc2nc(NCCN)oc12 [Compound 13u, N^1-decylbenzo[d]oxazol-2-yl)ethane-1,2-diamine hydrochloride] |
| > 2 µM | CCCCCCCCCCc1ccc2nc(CCN)oc2c1 [Compound 8d, 2-Decylbenzo[d]oxazol-2-yl)ethan-1-amine Hydrochloride] |
| > 2 µM | CCCCCCCCCCc1ccc2nc(NCCCN)sc2c1 [Compound 17b, N^1-decylbenzo[d]thiazol-2-yl)propane-1,3-diamine hydrochloride] |
| ≤ 2 µM | CCCCCCCCCCc1ccc2oc(NC3CCNCC3)nc2c1 [Compound 13m, 5-decyl-N-(piperidin-4-yl)benzo[d]oxazol-2-amine Hydrochloride] |
| ≤ 2 µM | CCCCCCCCCCc1ccc(C(=O)N2CCNCC2)cc1 [Compound 26c, Decylphenyl)(piperazin-1-yl)methanone Hydrochloride] |
| > 2 µM | CCCCCCCCCCc1cccc2oc(NCCCN)nc12 [Compound 13x, N^1-decylbenzo[d]oxazol-2-yl)propane-1,3-diamine hydrochloride] |
| > 2 µM | CCCCCCCCCCc1ccc2nc(N3CC[C@@H](N)C3)oc2c1 [Compound 13aa, (R)(6-decylbenzo[d]oxazol-2-yl)pyrrolidin-3-amine Hydrochloride] |
| > 2 µM | CCCCCCCCCCc1ccc(NC(=O)O[C@H]2CCNC2)cc1 [Compound 23b, (S)-pyrrolidin-3-yl (4-decylphenyl)carbamate Hydrochloride] |
| > 2 µM | CCCCCCCCCCCc1ccc2oc(NCCN)nc2c1 [Compound 13d, N^1-undecylbenzo[d]oxazol-2-yl)ethane-1,2-diamine hydrochloride] |
| ≤ 2 µM | CCCCCCCCCCc1ccc(NC(=O)[C@@H]2CCCN(C(=N)N)C2)cc1 [Compound 4a, (R)carbamimidoyl-N-(4-decylphenyl)piperidine-3-carboxamide 2,2,2-trifluoroacetate] |
| > 2 µM | CCCCCCCCCCc1ccc2oc(NCCCCCN)nc2c1 [Compound 13h, N^1-decylbenzo[d]oxazol-2-yl)pentane-1,5-diamine hydrochloride] |
| > 2 µM | CCCCCCCCCCc1ccc2nc(NCCN)sc2c1 [Compound 17a, N^1-decylbenzo[d]thiazol-2-yl)ethane-1,2-diamine hydrochloride] |

Further lines, the compound ahead of its results:

| SMILES | IC50 |
| --- | --- |
| CCCCCCCCCCc1ccc(NC(=O)C[C@@H]2CCNC2)cc1 [Compound 2i, (S)-N-decylphenyl)-2-(pyrrolidin-3-yl)acetamide Hydrochloride] | ≤ 2 µM |
| CCCCCCCCCCc1ccc(NC(=O)N[C@H]2CCNC2)cc1 [Compound 34, (S)(4-decylphenyl)-3-(pyrrolidin-3-yl)urea Hydrochloride] | ≤ 2 µM |
| CCCCCCCCCCc1ccc(NC(=O)CCCCN)cc1 [Compound 2e, 5-amino-N-(4-decylphenyl)pentanamide Hydrochloride] | > 2 µM |
| CCCCCCCCCCc1ccc(NC(=O)C2CCNCC2)cc1 [Compound 2o, N-decylphenyl)piperidine-4-carboxamide Hydrochloride] | > 2 µM |
| CCCCCCCCCc1ccc(NC(=O)CCCN)cc1 [Compound 2g, 4-amino-N-(4-nonylphenyl)butanamide Hydrochloride] | > 2 µM |
| CCCCCCCCCCc1ccc(NC(=O)CCCN)cc1 [Compound 2c, 4-amino-N-(4-decylphenyl)butanamide Hydrochloride] | ≤ 2 µM |
| CCCCCCCCCCc1ccc(C(=O)NC2CCNCC2)cc1 [Compound 39, 4-decyl-N-(piperidin-4-yl)benzamide Hydrochloride] | ≤ 2 µM |
| CCCCCCCCCCc1ccc(NC(=O)C[C@H]2CCNC2)cc1 [Compound 2j, (R)-N-decylphenyl)-2-(pyrrolidin-3-yl)acetamide Hydrochloride] | ≤ 2 µM |
| CCCCCCCCc1ccc(NC(=O)CCCN)cc1 [Compound 2h, 4-amino-N-(4-octylphenyl)butanamide Hydrochloride] | > 2 µM |
| CCCCCCCCCCc1ccc(NC(=O)CCCN(C)C)cc1 [Compound 2p, 4-(dimethylamino)-N-(4-decylphenyl)butanamide Hydrochloride] | > 2 µM |
| CCCCCCCCCCc1ccc(NC(=O)CCCNC)cc1 [Compound 2n, N-decylphenyl)-4-(methylamino)butanamide Hydrochloride] | > 2 µM |
| CCCCCCCCCCc1ccc(NC(=O)CCN)cc1 [Compound 2d, 3-amino-N-(4-decylphenyl)propanamide Hydrochloride] | ≤ 2 µM |
| CCCCCCCCCCc1ccc(NC(=O)N2CCNCC2)cc1 [Compound 35, N-decylphenyl)piperazine-1-carboxamide Hydrochloride] | ≤ 2 µM |
| CCCCCCCCCOc1ccc(NC(=O)CCCN)cc1C(F)(F)F [Compound 2m, 4-amino-N-(4-(nonyloxy)-3-(trifluoromethyl)phenyl)butanamide hydrochloride] | > 2 µM |
| CCCCCCCCCCc1ccc(NC(=O)[C@@H]2CCCNC2)cc1 [Compound 2a] | > 2 µM |
| CCCCCCCCCCc1ccc(NC(=O)CCCN)c(F)c1 [Compound 2l, amino-N-decyl-2-fluorophenyl)butanamide Hydrochloride] | > 2 µM |
| CCCCCCCCCCc1ccc2nc(CCCN)[nH]c2c1 [Compound 31, 3-decyl-1H-benzo[d]imidazol-2-yl)propan-1-amine Hydrochloride] | > 2 µM |
